Tests used:
Type in all cases: in vivo, mouse
CMS model mice = assay: TST in chronic unpredictable mild stress (CMS) model mice; details: for Immobility time (s) (mean ± SEM): oral once a day for 7 days
Method: (§1) Kunming mice (Certificate Number: A4CXK(Chuan)2003-16) from the Institute of Experimental Animals, People's Hospital of Sichuan Province, were used. They were 3-4 weeks old at the beginning of experiments and weighed 25-30 g. ORG was prepared as described in Example 1. Animals were divided into experiment groups with different doses, a vehicle control group, and an imipramine group (Sigma, Batch No. 106k1588) as positive control.
CMS model: The chronic mild stresses that Kunming mice were subjected to were reversal of circadian rhythm, continuous light, cold, damp bedding, tilt cages, food and water restriction, and restraint. […] The stress period lasted for 8 weeks. In the last week, ORG was administered orally once a day for 7 consecutive days. The behavioral test was carried out 30 min after the last administration. The parameter tested was immobility time in the FST and TST in the CMS model mice. The methods of FST and TST and data analysis were as described above.

DD model mice = assay: TST in constant darkness (DD) model mice; details: for Immobility time (s) (mean ± SEM): oral once a day for 1 week
Method: Kunming mice (Certificate Number: A4CXK(Chuan)2003-16) from the Institute of Experimental Animals, People's Hospital of Sichuan Province, were used. They were 3-4 weeks old at the beginning of the experiments and weighed 25-30 g. ORG was prepared as described in Example 1. Animals were divided into experimental groups with different doses, vehicle control groups, and an imipramine group (Sigma, Batch No. 106k1588) as positive control.
DD model in mice: Mice were kept under 24 h continuous dark conditions. The replacement of padding, addition of food and water, and other operations were undertaken in the condition that the intensity of red light was less than 1.0 lux. The period of this condition lasted for 28 days. In the last week, ORG was administered orally once a day for 1 week. The FST and TST were carried out 30 min after the last administration. Methods and data analysis were as described above.

Kunming mice = assay: Elevated plus maze (EPM) test in mice; details: i.p. 24 h and 5 h before test
Method: as §1, with “the experiment” for “experiments”, “drug administration” for “experiment”, “doses of ORG,” for “doses,”, “a diazepam” for “an imipramine”, “(Jinyao Ltd. Co.,” for “(Sigma,”
Elevated plus maze (EPM): The EPM had two open and two closed arms of equal size (30 cm long×5 cm wide). The two closed arms were connected by a central 5 cm×5 cm area. The whole maze was elevated to a height of 35 cm. ORG was administered i.p. 24 h and 5 h before the test started. Mice were individually placed in the center of the maze facing a closed arm. Each animal was tested for 5 min in a single session. The number of entrances into open arms, the number of entrances into closed arms, the total time spent in open arms, and the total time spent in closed arms were recorded; a standard of entry was defined as all limbs entering the arm. The number of entrances into open arms and time spent in open arms were the major indexes to evaluate the anxiety level of the animals, for the more entrances or time, the less the anxiety level.
Data analysis: The results of the test are expressed as mean±SEM. One-way ANOVA was used followed by the LSD test with SPSS 11 software. The significance level was set at P<0.05.

Q: With `Cc1cc(O)cc(OC2OC(CO)C(O)C(O)C2O)c1` [ORG, orcinol-1-O-β-D-glucopyranoside] as the compound, how does the “therapeutic index (TI) = TD50÷ED50” value (CMS model mice; CMS mice) read?
A: Its value is greater than 415.

Q: What about the “Immobility time (s) (mean ± SEM)” value (CMS model mice; CMS mice, 5 mg/kg) of the same compound?
A: Its value is 146.30 ± 11.66 s.

Q: What about the “Immobility time (s) (mean ± SEM)” value (CMS model mice; CMS mice, 10 mg/kg) of the same compound?
A: Its value is 145.31 ± 12.41 s.

Q: And the “Immobility time (s) (mean ± SEM)” value (CMS model mice; CMS mice, 20 mg/kg)?
A: Its value is 140.69 ± 14.14 s.

Q: And the “Immobility time (s) (mean ± SEM)” value (CMS model mice; CMS mice, test 30 min after last dose, 1.25 mg/kg)?
A: The value was 171.20 ± 13.02 s.

Q: And the “best dose for the antidepressant effect” value (CMS model mice; CMS model mice, ORG oral)?
A: Its value is 20 mg/kg.

Q: And the ED50 (CMS model mice; Mus musculus, CMS model mice, ORG oral)?
A: Its ED50 is roughly 4.22 mg/kg.

Q: What about the “therapeutic index = TD50÷ED50” value (DD model mice; DD mice) of the same compound?
A: The value was greater than 1000.

Q: And the “Immobility time (s) (mean ± SEM)” value (DD model mice; DD mice, 5 mg/kg)?
A: The value was 146.30 ± 11.66 s.

Q: What about the “Immobility time (s) (mean ± SEM)” value (DD model mice; DD mice, 10 mg/kg) of the same compound?
A: Its value is 145.31 ± 12.41 s.

Q: And the “Immobility time (s) (mean ± SEM)” value (DD model mice; DD mice, 20 mg/kg)?
A: Its value is 140.69 ± 14.138 s.

Q: And the “Immobility time (s) (mean ± SEM)” value (DD model mice; DD mice, test 30 min after last dose, 1.25 mg/kg)?
A: The value was 171.20 ± 13.02 s.

Q: What about the “dose of the best efficacy” value (DD model mice; DD model mice, ORG oral) of the same compound?
A: The value was 20 mg/kg.

Q: And the ED50 (DD model mice; Mus musculus, DD model mice, ORG oral)?
A: Its ED50 is roughly 1.75 mg/kg.

Q: What about the “Number of entries into open arms (mean ± SEM)” value (from here on “Number … (mean ± SEM)”) (Kunming mice; 5 mg/kg) of the same compound?
A: Its value is 4.50 ± 0.58.

Q: What about the “Total time spent in the open arms (s) (mean ± SEM)” value (from here on “Total time spent … (mean ± SEM)”) (Kunming mice; 5 mg/kg) of the same compound?
A: Its value is 50.00 ± 8.99 s.

Q: What about the “Number … (mean ± SEM)” value (Kunming mice; 20 mg/kg) of the same compound?
A: The value was 1.80 ± 0.79.

Q: And the “Total time spent … (mean ± SEM)” value (Kunming mice; 20 mg/kg)?
A: Its value is 16.50 ± 3.60 s.

Q: And the “Number … (mean ± SEM)” value (Kunming mice; 100 mg/kg)?
A: The value was 5.90 ± 0.57.

Q: And the “Total time spent … (mean ± SEM)” value (Kunming mice; 100 mg/kg)?
A: The value was 70.60 ± 11.56 s.
